Where a name gives a salt, the structure may show the parent alone.
Columns and labels:
P2T receptor = biological target: T1, P2T receptor (Homo sapiens, UniProt Q9H244); experiment: P2T receptor agonist/antagonist activity in washed human platelets (inhibition of ADP-induced aggregation); type: cell-based; conditions: submaximal ADP, 15 min incubation with test compound, 8-SPT present, % inhibition of control ADP response giving approximate IC50, read-out: pIC50 (negative logarithm of the antagonist potency) (converted)
T1 construct: activity in washed human platelets; endogenous in cells; host or cells: washed human platelets from venous blood of donors
Procedure: Quantification of P2T receptor aganoist/antagonist activity in washed human platelets Human venous blood (100 ml) was divided equally between 3 tubes, each containing 3.2% trisodium citrate (4 ml) as anti-coagulant. The tubes were centrifuged for 15 min at 240G to obtain a platelet-rich plasma (PRP) to which 300 ng.ml^-1 prostacyclin (PGI2, 3 μl.ml^-1 PRP of 1/10 diln. in saline from stock 1 mg/ml^-1 in ethanol) was added to stabilize the platelets during the washing procedure. Red cell free PRP was obtained by centrifugation for 10 min at 125G followed by further centrifugation for 15 min at 640G. The supernatant was discarded and the platelet pellet resuspended in modified, calcium free, Tyrode solution [(10 ml) CFT, composition: NaCl 137 mM (8 g.l^-1), NaHCO3 11.9 mM (1 g.l^-1), NaH2 PO, 0.38 mM (0.06 g.l^-1), KCl 2.86 mM (1 ml of 20% soln.l^-1), MgCl2 1.05 mM (1 ml of 10% soln.l^-1), dextrose 5.55 mM (1 g.l^-1)], gassed with 95% O2 /5% CO2 and maintained at 37°. Following addition of a further 300 ng.ml^-1PGI2, the pooled suspension was centrifuged once more for 15 min at 640G. The supernatant was discarded and the platelets resuspended initially in 10 ml CFT with further CFT added to adjust the final platelet count to 2×10^5.μl^-1. This final suspension was stored in a 60 ml syringe at 3° with air excluded.
To allow recovery from PGI2 -inhibition of normal function, platelets were used in aggregation studies no sooner than 2 hours after final resuspension. […]
A concentration of ADP producing a just submaximal response was selected by constructing a concentration/response curve over the range 10-300 μM. the appropriate solution of ADP was added to the aggregation cuvette in a volume of 10 μl, 20 min after starting the aggregation trace. Aggregation responses were measured using the maximum rate of change in light transmission, an index given by the PAP4 slope-reader. […]

guinea pig taenia coli = conditions: Maguire and Satchell 1979; cited from earlier work
platelet aggregation = conditions: Cusack and Hourani, Nucleosides & Nucleotides 1991; cited from earlier work

T1 sequence (Q9H244 whole entry): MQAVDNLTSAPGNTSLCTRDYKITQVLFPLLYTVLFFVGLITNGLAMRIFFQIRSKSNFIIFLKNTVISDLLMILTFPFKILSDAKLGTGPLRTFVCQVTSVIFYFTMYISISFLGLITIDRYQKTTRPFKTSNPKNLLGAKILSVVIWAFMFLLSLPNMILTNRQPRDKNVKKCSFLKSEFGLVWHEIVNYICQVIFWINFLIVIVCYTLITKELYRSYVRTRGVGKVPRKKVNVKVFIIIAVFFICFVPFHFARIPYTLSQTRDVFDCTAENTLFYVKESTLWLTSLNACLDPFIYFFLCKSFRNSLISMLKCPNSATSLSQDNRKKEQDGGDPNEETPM

SMILES	IC50 (P2T receptor) [nM]	also measured
O=P(O)(OC[C@H]1O[C@@H](n2cnc3c(NCC(F)(F)F)nc(SCCC(F)(F)F)nc32)[C@H](O)[C@@H]1O)OP(=O)(O)C(Cl)(Cl)P(=O)(O)O [Example 6a, N-(2,2,2-Trifluoroethyl)-2-[(3,3,3-trifluoropropyl)thio]-5'-adenylic acid, monoanhydride with dichloromethylenebisphosphonic acid, triammonium salt]	0.724	
Nc1nc(Cl)nc2c1ncn2[C@@H]1O[C@H](COP(=O)(O)OP(=O)(O)CP(=O)(O)O)[C@@H](O)[C@H]1O [2-chloro-5'-adenylic acid, monoanhydride with methylenebisphosphonic acid]		inhibition of guinea pig taenia coli (guinea pig taenia coli): inhibition
CSc1nc(N)c2ncn([C@@H]3O[C@H](COP(=O)(O)OP(=O)(O)CP(=O)(O)O)[C@@H](O)[C@H]3O)c2n1 [2-methylthio-5'-adenylic acid, monoanhydride with methylenebisphosphonic acid]		inhibition of ADP-α-S induced platelet aggregation (platelet aggregation): inhibits
CCCSc1nc(NCC)c2ncn([C@@H]3O[C@H](COP(=O)(O)OP(=O)(O)C(Cl)(Cl)P(=O)(O)O)[C@@H](O)[C@H]3O)c2n1 [Example 1, N-Ethyl-2-(propylthio)-5'-adenylic acid, monoanhydride with dichloromethylenebisphosphonic acid, tetrasodium salt]	0.912	
CCNc1nc(SCCC(F)(F)F)nc2c1ncn2[C@@H]1O[C@H](COP(=O)(O)OP(=O)(O)C(Cl)(Cl)P(=O)(O)O)[C@@H](O)[C@H]1O [Example 5, N-Ethyl-2-[(3,3,3-trifluoropropyl)thio]-5'-adenylic acid, monoanhydride with dichloromethylenebisphosphonic acid, trisodium salt]	2.09	
